Data: ChEMBL document CHEMBL4842383 (J Med Chem, 2021)

What was measured:
[1] = molecular target: T1, Aurora kinase B (Homo sapiens, UniProt Q96GD4); experiment: Inhibition of human recombinant full length GST-AURKB using tetra(-LRRASLG) peptide as substrate incubated for 20 mins by ATP Kinase Glo assay; set-up: species or system Sf9
[2] = molecular target: T2, Aurora kinase A (Homo sapiens) (UniProt O14965); experiment: Inhibition of recombinant GST-AURKA (residues Ser123 to Ser401) (unknown origin) expressed in Sf9 insect cells using tetra(-LRRASLG) peptide as substrate at 1 uM incubated for 90 mins by ATP Kinase Glo assay
T2 sequence (whole entry): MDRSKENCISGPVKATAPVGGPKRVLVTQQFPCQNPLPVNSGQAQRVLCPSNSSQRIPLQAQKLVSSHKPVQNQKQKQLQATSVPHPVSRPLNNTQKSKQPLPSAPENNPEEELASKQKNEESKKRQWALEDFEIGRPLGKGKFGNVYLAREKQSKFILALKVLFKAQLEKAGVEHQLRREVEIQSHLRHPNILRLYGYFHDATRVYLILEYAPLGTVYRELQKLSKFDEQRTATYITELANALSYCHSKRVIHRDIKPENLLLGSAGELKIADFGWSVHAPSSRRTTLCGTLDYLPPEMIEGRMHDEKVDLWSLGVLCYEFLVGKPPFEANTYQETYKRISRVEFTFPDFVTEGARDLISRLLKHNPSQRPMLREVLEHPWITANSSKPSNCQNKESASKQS

[3] = Volume of distribution at steady state in Sprague-Dawley rat at 5 mg/kg, iv measured up to 24 hrs by LC-MS/MS analysis; format: ADME, organism-based; settings: in vivo, read-out: Vdss
[4] = Dose normalized AUC (0 to inf) in Sprague-Dawley rat at 20 to 25 mg/kg, po measured up to 24 hrs by LC-MS/MS analysis; format: ADME, organism-based; settings: in vivo, dose 20-25 mg/kg
[5] = Clearance in Sprague-Dawley rat at 5 mg/kg, iv measured up to 24 hrs by LC-MS/MS analysis; format: ADME, organism-based; settings: in vivo
[6] = tested on: BaF3; experiment: Antiproliferative activity against mouse BaF3 cells transfected with human ETV6-CSF1R assessed as reduction in cell viability measured after 72 hrs by MTS method; settings: BaF3, 72 h
[7] = Dose normalized Cmax in Sprague-Dawley rat at 20 to 25 mg/kg, po measured up to 24 hrs by LC-MS/MS analysis; format: ADME, organism-based; settings: in vivo, dose 20-25 mg/kg
[8] = molecular target: T1, Aurora kinase B; experiment: Inhibition of human recombinant full length GST-AURKB using tetra(-LRRASLG) peptide as substrate at 0.1 uM incubated for 20 mins by ATP Kinase Glo assay; format: biochemical; settings: Sf9
[9] = molecular target: T3, Aurora kinase A (Homo sapiens, UniProt O14965); experiment: Inhibition of recombinant GST-AURKA (residues Ser123 to Ser401) (unknown origin) expressed in Sf9 insect cells using tetra(-LRRASLG) peptide as substrate incubated for 90 mins by ATP Kinase Glo assay
T3 sequence (O14965 whole entry): T2 sequence (whole entry)

[10] = Oral bioavailability in Sprague-Dawley rat at 20 to 25 mg/kg measured up to 24 hrs by LC-MS/MS analysis; format: ADME, organism-based; settings: in vivo, dose 20-25 mg/kg
[11] = Tmax in Sprague-Dawley rat at 20 to 25 mg/kg, po measured up to 24 hrs by LC-MS/MS analysis; format: ADME, organism-based; settings: in vivo, dose 20-25 mg/kg
[12] = tested on: NFS-60; experiment: Antiproliferative activity against mouse NFS-60 cells transfected with human ETV6-CSF1R assessed as reduction in cell viability measured after 72 hrs by MTS method; format: functional, cell-based; settings: NFS-60, 72 h
[13] = molecular target: Macrophage colony-stimulating factor 1 receptor (Homo sapiens, UniProt P07333); experiment: Inhibition of human recombinant GST-CSF1R (residues L534 to C972) expressed in Sf9 insect cells using poly(Glu,Tyr) as substrate incubated for 20 mins by ATP Kinase Glo assay
[14] = Dose normalized AUC (0 to inf) in Sprague-Dawley rat at 5 mg/kg, iv measured up to 24 hrs by LC-MS/MS analysis; format: ADME, organism-based; settings: in vivo
[15] = Half life in Sprague-Dawley rat at 20 to 25 mg/kg, po measured up to 24 hrs by LC-MS/MS analysis; format: ADME, organism-based; settings: in vivo, dose 20-25 mg/kg
[16] = Half life in Sprague-Dawley rat at 5 mg/kg, iv measured up to 24 hrs by LC-MS/MS analysis; format: ADME, organism-based; settings: in vivo

T1 sequence (Q96GD4 whole entry, the tested form may be a part): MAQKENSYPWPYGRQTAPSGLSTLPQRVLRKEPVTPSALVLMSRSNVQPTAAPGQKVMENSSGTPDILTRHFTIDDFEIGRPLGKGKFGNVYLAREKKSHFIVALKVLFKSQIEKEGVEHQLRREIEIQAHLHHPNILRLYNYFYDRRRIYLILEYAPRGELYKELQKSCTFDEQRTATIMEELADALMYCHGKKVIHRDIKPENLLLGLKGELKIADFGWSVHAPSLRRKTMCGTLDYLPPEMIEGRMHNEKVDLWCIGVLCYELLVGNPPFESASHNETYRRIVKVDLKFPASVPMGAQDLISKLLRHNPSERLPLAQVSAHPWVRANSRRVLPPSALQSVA
Macrophage colony-stimulating factor 1 receptor, sequence (P07333 whole entry, the tested form may be a part): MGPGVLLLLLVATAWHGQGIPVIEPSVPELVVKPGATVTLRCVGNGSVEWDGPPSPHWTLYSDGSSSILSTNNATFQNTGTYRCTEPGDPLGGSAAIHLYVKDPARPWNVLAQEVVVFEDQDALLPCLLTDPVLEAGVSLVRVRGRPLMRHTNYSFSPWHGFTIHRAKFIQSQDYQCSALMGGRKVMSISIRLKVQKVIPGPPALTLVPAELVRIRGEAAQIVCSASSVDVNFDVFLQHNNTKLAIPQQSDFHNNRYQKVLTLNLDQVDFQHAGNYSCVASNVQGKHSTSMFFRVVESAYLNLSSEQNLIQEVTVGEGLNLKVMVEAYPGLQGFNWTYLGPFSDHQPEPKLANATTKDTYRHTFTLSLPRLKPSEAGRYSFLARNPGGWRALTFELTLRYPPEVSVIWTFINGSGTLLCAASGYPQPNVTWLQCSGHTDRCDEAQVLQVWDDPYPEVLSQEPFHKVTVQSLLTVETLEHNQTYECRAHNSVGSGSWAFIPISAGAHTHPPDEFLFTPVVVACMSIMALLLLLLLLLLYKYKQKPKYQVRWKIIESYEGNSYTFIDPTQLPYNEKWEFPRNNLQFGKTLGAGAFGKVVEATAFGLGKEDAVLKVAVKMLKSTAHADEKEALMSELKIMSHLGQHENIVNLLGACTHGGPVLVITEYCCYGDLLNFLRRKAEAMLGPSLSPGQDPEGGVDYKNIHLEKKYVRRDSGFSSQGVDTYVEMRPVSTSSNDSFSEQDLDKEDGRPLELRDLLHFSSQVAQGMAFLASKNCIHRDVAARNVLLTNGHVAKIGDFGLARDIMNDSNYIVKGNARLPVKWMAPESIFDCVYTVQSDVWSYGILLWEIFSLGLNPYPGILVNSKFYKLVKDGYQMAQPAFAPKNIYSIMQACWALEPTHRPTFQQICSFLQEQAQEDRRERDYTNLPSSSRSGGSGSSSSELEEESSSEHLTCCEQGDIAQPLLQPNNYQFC

SMILES	IC50 [1]	inhibition [2]	Vd [3]	AUCt/dose [4]	clearance [5]	EC50 [6]	Cmax/dose [7]	inhibition [8]	IC50 [9]	bioavailability [10]	Tmax [11]	EC50 [12]	IC50 [13]	AUCt/dose [14]	half-life [15]	half-life [16]
COc1ccc(NC(=O)Nc2ccc(Oc3ncnc4cc(N(C)C)ccc34)cc2)cc1	22.2 nM	23%	0.7 L/kg	91 ng.hr/mL per mg/kg	5.6 mL/min/kg	23 nM	10.6 ng/mL	34%	> 10000 nM	3.2%	2.7 h	23 nM	14.1 nM	2842 ng.hr/mL per mg/kg	4 h	1.6 h
COc1ccc(Cl)cc1NC(=O)Nc1ccc(Oc2ncnc3cc(N(C)C)ccc23)cc1	–	70%	–	–	–	86 nM	–	41%	–	–	–	141 nM	36 nM	–	–	–
CN(C)c1ccc2c(Oc3ccc(NC(=O)NCc4cccnc4)cc3)ncnc2c1	–	1%	–	–	–	87 nM	–	15%	–	–	–	152 nM	79 nM	–	–	–
CN(C)c1ccc2c(Oc3ccc(NC(=O)NCCc4ccccc4)cc3)ncnc2c1	–	35%	–	–	–	82 nM	–	35%	–	–	–	162 nM	15.4 nM	–	–	–
O=C(Nc1cccc(Cl)c1)Nc1ncc(CCNc2ncnc3cc(F)ccc23)s1	–	–	–	–	–	–	–	83%	9 nM	–	–	–	> 10 nM	–	–	–
COc1cccc(NC(=O)Nc2ccc(Oc3ncnc4cc(N(C)C)ccc34)cc2)c1	–	46%	–	–	–	65 nM	–	79%	–	–	–	108 nM	11.6 nM	–	–	–
CN(C)c1ccc2c(Oc3ccc(NC(=O)Nc4cccc(Cl)c4)cc3)ncnc2c1	–	71%	–	–	–	20 nM	–	82%	–	–	–	55 nM	10.5 nM	–	–	–
COc1ccc(CNC(=O)Nc2ccc(Oc3ncnc4cc(N(C)C)ccc34)cc2)cc1	–	6%	9 L/kg	15 ng.hr/mL per mg/kg	16.5 mL/min/kg	91 nM	1.7 ng/mL	29%	–	1.6%	6 h	81 nM	12.9 nM	1252 ng.hr/mL per mg/kg	6.7 h	20.6 h
COc1ccc(NC(=O)Nc2ccc(Oc3ncnc4cc(N(C)C)ccc34)cc2)cc1Cl	–	53%	–	–	–	43 nM	–	44%	–	–	–	53 nM	11.1 nM	–	–	–
CN(C)c1ccc2c(Oc3ccc(NC(=O)NCc4nccs4)cc3)ncnc2c1	–	2%	–	–	–	318 nM	–	19%	–	–	–	202 nM	24 nM	–	–	–
CN(C)c1ccc2c(Oc3ccc(NC(=O)Nc4ccc(Cl)cc4)cc3)ncnc2c1	–	70%	–	–	–	18.4 nM	–	50%	–	–	–	25 nM	164 nM	–	–	–
CN(C)c1ccc2c(Oc3ccc(NC(=O)NCc4ccc(S(N)(=O)=O)cc4)cc3)ncnc2c1	–	2%	–	–	–	662 nM	–	62%	–	–	–	1090 nM	16.3 nM	–	–	–
CN(C)c1ccc2c(Oc3ccc(NC(=O)NCc4ccc(C(F)(F)F)cc4)cc3)ncnc2c1	–	16%	–	–	–	152 nM	–	25%	–	–	–	97 nM	91 nM	–	–	–
Cc1ccc(CNC(=O)Nc2ccc(Oc3ncnc4cc(N(C)C)ccc34)cc2)cn1	–	4%	1.5 L/kg	164 ng.hr/mL per mg/kg	5.6 mL/min/kg	38 nM	21 ng/mL	9%	–	10.4%	3.2 h	68 nM	11 nM	1578 ng.hr/mL per mg/kg	2.4 h	10.5 h
COc1ccc2c(NCCc3cnc(NC(=O)Nc4cccc(Cl)c4)s3)ncnc2c1	–	–	–	–	–	–	–	89%	9 nM	–	–	–	112 nM	–	–	–
CN(C)c1ccc2c(Oc3ccc(NC(=O)NCc4ccccc4)cc3)ncnc2c1	–	7%	–	–	–	85 nM	–	7%	–	–	–	58 nM	16.3 nM	–	–	–
COc1ccc(CNC(=O)Nc2ccc(Oc3ncnc4cc(N(C)C)ccc34)cc2)cn1	–	2%	1.4 L/kg	236 ng.hr/mL per mg/kg	24.7 mL/min/kg	87 nM	35 ng/mL	18%	–	30.7%	2.3 h	67 nM	12.7 nM	767 ng.hr/mL per mg/kg	4.8 h	1.2 h
CN(C)c1ccc2c(Oc3ccc(NC(=O)Nc4ccccc4Cl)cc3)ncnc2c1	–	43%	–	–	–	66 nM	–	79%	–	–	–	145 nM	15.4 nM	–	–	–
COc1ccccc1NC(=O)Nc1ccc(Oc2ncnc3cc(N(C)C)ccc23)cc1	–	24%	–	–	–	116 nM	–	53%	–	–	–	144 nM	30 nM	–	–	–
CN(C)c1ccc2c(Oc3ccc(NC(=O)NCc4ccc(F)cc4)cc3)ncnc2c1	–	5%	1.4 L/kg	89 ng.hr/mL per mg/kg	12.2 mL/min/kg	46 nM	56 ng/mL	27%	> 10000 nM	7.3%	0.5 h	69 nM	8.3 nM	1225 ng.hr/mL per mg/kg	24.2 h	3.3 h
